Results on four molecules are retold here after patent publication US7989466B2, “Methods to inhibit or augment an inflammatory response” (Cambridge Enterprise Limited, priority 1999, dated 2011).

One series concerns THP-1 cells. The experiment in a line: Agonist activity: agent in the lower compartment of the THP-1 migration chamber. As to conditions: agent in place of chemokine.
For series [1], the system named is LPS- and MCP-1-induced dermal inflammation. The series can be described thus: Rat dermal inflammation model (MCP-1 / LPS intradermal). Type of series: in vivo. The method, then: To assess the efficacy of an agent of the invention in the prevention of lipopolysaccharide (LPS)- and MCP-1-induced dermal inflammation in the rat, three different doses of CRD-Leu4Ile11Cys13peptide 3(3-12)[MCP-1] were administered. An inflammatory response was elicited by intradermal injection (ventral abdomen) of either 500 ng MCP-1 or 100 ng MCP-1 along with endotoxin-free phosphate-buffered saline vehicle (as a negative control) and bacterial lipopolysaccharide (LPS; as a positive control). Each substance was injected at a different site. The results obtained from animals were compared to CRD-Leu4Ile11Cys13 peptide 3(3-12)[MCP-1] treated, and PBS (diluent control) treated, animals. […] The intradermal sites of agonist injection were collected, bisected and the extent of the inflammatory response was assessed by histopathology and quantitative immunofluorescence (fixed and frozen) (for example, following MCP-1 injection, the number of monocyte/macrophages in the skin was determined using the anti-CD14 (MCA342 from Serotec; clone ED2) at 3 μg/ml overnight at 4° C. The second antibody was rat anti-mouse FITC (415-096-100 from Jackson ImmunoResearch) at 28 μg/ml for 6 hours at room temperature). […]

For series [2], the system named is T cell-dependent antibody response. The series can be described thus: Antibody response in mice immunized with sheep red blood cells. The format is in vivo, mouse. Conditions: T cell-independent response not prevented.
In series [3] the test system is SDF-1α induced human monocyte migration. The experiment in a line: Human monocyte migration, SDF-1α. Conditions: n.s. = no statistically significant inhibition. The format is cell-based. The method, then:
(§1) Agents may also be screened in a chemotactic assay which employs human neutrophils, eosinophils, mast cells, basophils, platelets, lymphocytes or monocytes. For monocytes, 9 mls of fresh blood are transferred to a tube containing 1 ml of 3.8% sodium citrate, and left at room temperature for 15 minutes. Five mls of this anti-coagulated blood are carefully layered over 3.5 ml Polymorphprep® (Nycomed Pharma, Oslo), and centrifuged at 500 g for 35 minutes per the manufacturer's instructions. The top band at the sample/medium interface contains monocytes. The monocytes are carefully removed with a glass pipette, and reconstituted to the original volume (5 ml). The cells are washed with PBS plus 10% fetal calf serum, and centrifuged at 400 g for 10 minutes. The washing step is repeated three times before the cells are counted. Cells are resuspended at 1×10^7 cells/ml in RPMI-1640+10% fetal calf serum (FCS). The monocytes are cultured for two days at 37° C. in a humidified atmosphere of 5% CO2.
(§2) On day 2, the cells are counted, spun down, and reconstituted to 1×10^7 cells/ml in Gey's balanced salt solution+1 mg/ml bovine serum albumin (BSA). […]

Series [4] has as its system MCP-1 induced human monocyte migration. The experiment in a line: Human monocyte migration, MCP-1. The format is cell-based. Conditions: n.s. = no statistically significant inhibition. As for the experimental part:
as §1
On day 2, the cells are counted, spun down, and reconstituted to 1×10^7 cells/ml in Gey's balanced salt solution+1 mg/ml bovine serum albumin (BSA). Chemotaxis is induced in a 48 or 96-well disposable chemotaxis chamber fitted with a 5-8 μm polycarbonate filter for monocytes, neutrophils or eosinophils, or a 3 μm filter for lymphocytes (Uguccioni et al, Eur. J. Immunol., 25, 64 (1995); Loetscher et al., J. Exy. Med., 184, 569 (1996); Weber et al., J. Immunol., 4166 (1995)) (PVP free, ChemoTX, Neuroprobe Inc., Cabin John, Md.). Twenty-nine μl of chemoattractant or control are added to the lower compartment of each well. The framed filter is aligned with the holes in the corner of the filter frame and placed over the wells. Two and one-half×10^5 monocytes in 25 μl of Gey's balanced salt solution+1 mg/ml BSA are added to the upper compartment. The agent is dissolved in MilliQ water and then serially diluted in the Gey's balanced salt solution. In most cases, the serially diluted agent is added to the upper compartment of the chemotaxis chamber. […]

For series [5], the system named is TGFβ1 induced human monocyte migration. The experiment in a line: Human monocyte migration, TGFβ1. As to conditions: n.s. = no statistically significant inhibition. Type of series: cell-based. As for the experimental part:
as §1, §2

Series [6] concerns MIP1α induced human monocyte migration. The experiment in a line: Human monocyte migration, MIP1α. The format is cell-based. Conditions: n.s. = no statistically significant inhibition. The method, then:
as §1, §2

Positions of bridges follow the written chain, without caps; N, C: chain ends. Non-standard residues stand in square brackets, D forms with d. Residues, ends and D or L forms follow the SMILES beside them. No end group written: not given here.

`CC[C@@H](C)[C@H]1NC(=O)[C@@H](CCC(N)=O)NC(=O)[C@H](N)CSSC[C@H](C(N)=O)NC(=O)[C@@H](CC(C)C)NC(=O)[C@@H](CC(=O)O)NC(=O)[C@H]2CCCN2C(=O)[C@@H](CCCCN)NC(=O)[C@@H](CCC(N)=O)NC(=O)[C@@H](CCCCN)NC(=O)[C@@H](Cc2c[nH]c3ccccc23)NC1=O` (H-[dC][dQ][dI][dW][dK][dQ][dK][dP][dD][dL][dC]-NH2; disulfide 1-11; N-terminus assumed): the agonist activity entry with THP-1 cells is on record as “No agonist activity was detected in the concentration range where inhibitory effects on chemokine-induced migration are seen (<1 μM)”. Further, in series [1] (rat skin), the “recruitment of B-cells to the site of the LPS injection” value is recorded as “substantially inhibited”. Moreover, the “MCP-1 induced recruitment of monocyte/macrophages in rat skin” value in series [1] (systemic treatment 30 minutes before intradermal MCP-1) is recorded as “completely abolished”. Moreover, the “T cell-dependent antibody response” value in series [2] is “prevented”. Also, the “serum TNF-α in LPS treated mice, in words” value with LPS-induced serum TNF-α (i.v. loading dose and s.c. bolus 30 minutes before 583 μg LPS i.p.) is “dose dependent decrease”.
For the molecule `C=CCCCCCCCCC(=O)N[C@H]1CCC(=O)NC1=O` [A-I (NR58.4), [3S]-3-(undec-10-enoylamino)piperidine-2,6-dione], the “local tolerance at the site of injection” value with LPS-induced serum TNF-α (mouse, in vivo, sc) is recorded as “irritation was noted at the site of injection”.
Regarding EICADPKQKWVQ [peptide 3(1-12)[MCP-1]], in series [3], the % inhibition – broadly, the change of the read-out against control, counted positive when it falls – at 100 μM versus SDF-1α, human monocyte migration stood at 108%. Also, the “% inhibition at 100 μM versus MCP-1, human monocyte migration” value in series [4] is listed as 108%. Also, the “% inhibition at 100 μM versus TGFβ1, human monocyte migration” value in series [5] is reported as “n.s”. Also, the “% inhibition at 100 μM versus MIP1α, human monocyte migration” value in series [6] stood at 120%.
As to “SYRRITSSKCPKEAV [peptide 2(1-15)[MCP-1]]”, in series [3], the “% inhibition at 100 μM versus SDF-1α, human monocyte migration” value is listed as “n.s”. For the same molecule, the agonist activity result in the series on THP-1 cells was “weak agonist properties”. For the same molecule, the “% inhibition at 100 μM versus MCP-1, human monocyte migration” value is reported as 20% in series [4] and 23% in series [4] (listed as Peptide 2 (SEQ ID NO: 3)). In addition, in series [5], the “% inhibition at 100 μM versus TGFβ1, human monocyte migration” value was “n.s”. For the same molecule, the “% inhibition at 100 μM versus MIP1α, human monocyte migration” value in series [6] is reported as “n.s”.
